Assays:
[1] = system: PBMC cells; test: Cell mitosis assay; assay type: cell-based, human
Protocol: Peripheral blood mononucleocytes (PBMCs) from healthy subjects are separated from whole blood (Quintiles, London, UK) using a density gradient (Histopaque-1077, Sigma-Aldrich, Poole, UK). The PBMCs (3 million cells per sample) are subsequently treated with 2% PHA (Sigma-Aldrich, Poole, UK) for 48 hr, followed by a 20 hr exposure to varying concentrations of test compounds. At 2 hr before collection, PBMCs are treated with demecolcine (0.1 μg/mL) (Invitrogen, Paisley, UK,) to arrest cells in metaphase. To observe mitotic cells, PBMCs are permeabilised and fixed by adding Intraprep (50 μL) (Beckman Coulter, France), and stained with anti-phospho-histone 3 (0.26 ng/L) (#9701; Cell Signalling, Danvers, Mass.) and propidium iodide (1 mg/mL) (Sigma-Aldrich, Poole, UK,) as previously described (Muehlbauer P. A. and Schuler M. J., Mutation Research, 2003, 537:117-130). Fluorescence is observed using an ATTUNE flow cytometer (Invitrogen, Paisley, UK), gating for lymphocytes.

[2] = system: RSV A2; test: RSV induced F-protein expression in primary bronchial epithelial cells; assay type: cell-based, respiratory syncytical virus; conditions: human respiratory syncytial virus, Primary bronchial epithelial cell, read-out: RSV induced F-protein in HBECs IC50
Protocol: Normal human bronchial epithelial cells (NHBEC) grown in 96 well plates are infected with RSV A2 (Strain A2, HPA, Salisbury, UK) at an MOI of 0.001 in the LHC8 Media:RPMI-1640 (50:50) containing 15 mM magnesium chloride and incubated for 1 hr at 37° C. for adsorption. The cells are then washed with PBS (3×200 μL), fresh media (200 μL) is added and incubation continued for 4 days. Where appropriate, cells are pre-incubated with the compound or DMSO for 2 hr, and then added again after washout of the virus.
The cells are fixed with 4% formaldehyde in PBS solution (50 μL) for 20 min, washed with WB (3×200 μL), (washing buffer, PBS including 0.5% BSA and 0.05% Tween-20) and incubated with blocking solution (5% condensed milk in PBS) for 1 hr. Cells are then washed with WB (3×200 μL) and incubated for 1 hr at RT with anti-RSV (2F7) F-fusion protein antibody (40 μL) (mouse monoclonal, lot 798760, Cat. No. ab43812, Abcam) in 5% BSA in PBS-tween. After washing, cells are incubated with an HRP-conjugated secondary antibody solution (50 μL) in 5% BSA in PBS-Tween (lot 00053170, Cat. No. P0447, Dako) and then TMB substrate (50 μL) (substrate reagent pack, lot 269472, Cat. No. DY999, R&D Systems, Inc.) was added. This reaction is stopped by the addition of 2N H2SO4 (50 μL) and the resultant signal is determined colorimetrically (OD: 450 nm with a reference wavelength of 655 nm) in a microplate reader (Varioskan® Flash, ThermoFisher Scientific).
Cells are then washed and a 2.5% crystal violet solution (50 μL) (lot 8656, Cat. No. PL7000, Pro-Lab Diagnostics) is applied for 30 min. After washing with WB, 1% SDS in distilled water (100 μL) is added to each well, and plates are shaken lightly on the shaker for 1 hr prior to reading the absorbance at 595 nm. The measured OD450-655 readings are corrected to the cell number by dividing the OD450-655 by the OD595 readings. The percentage inhibition for each well is calculated and the IC50 value is calculated from the concentration-response curve generated from the serial dilutions of compound.

[3] = system: d-U937 cells; test: Cell viability: MTT assay; assay type: cell-based, human; conditions: 1 μg/mL
How it was run: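 MTT read-out (1 h, absorbance 550 nm) on d-U937 cells after pre-incubation with 1 or 10 μg/mL compound under two regimes: 4 h, 5% FCS, or 24 h, 10% FCS RPMI1640. Values are percent loss of viability relative to vehicle (0.5% DMSO), so increases are reported as negative.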

[4] = system: LPS-induced airways neutrophilia in mice; test: LPS-induced neutrophil accumulation in mice; assay type: in vivo; conditions: Test Substance at 0.2 mg/mL, intra tracheal, dosed 8 hr pre-LPS challenge
[5] = system: HRV16; test: HRV16 induced CPE in MRC5 cells; assay type: cell-based, human rhinovirus; conditions: for IC50: Human rhinovirus sp., HRV16, MRC5, read-out: HRV induced CPE in MRC5 Cells IC50
Protocol: The supernatants are aspirated, and then fresh media added followed by incubation for 4 days. Where appropriate, cells are pre-incubated with compound or DMSO for 2 hr, and the compounds and DMSO added again after washout of the virus.
Supernatants are aspirated and incubated with methylene blue solution (100 μL, 2% formaldehyde, 10% methanol and 0.175% Methylene Blue) for 2 hr at RT. […] The percentage inhibition for each well is calculated. The IC50 value is calculated from the concentration-response curve generated by the serial dilutions of the test compounds.

[6] = target: GSK3α (Homo sapiens (Human), UniProt P49840); test: Enzyme binding assay (Kinomescan) GSK3α; conditions: read-out: % Inhibition for kinase binding at 500 nM GSK3α
Chain of GSK3α (P49840 whole entry): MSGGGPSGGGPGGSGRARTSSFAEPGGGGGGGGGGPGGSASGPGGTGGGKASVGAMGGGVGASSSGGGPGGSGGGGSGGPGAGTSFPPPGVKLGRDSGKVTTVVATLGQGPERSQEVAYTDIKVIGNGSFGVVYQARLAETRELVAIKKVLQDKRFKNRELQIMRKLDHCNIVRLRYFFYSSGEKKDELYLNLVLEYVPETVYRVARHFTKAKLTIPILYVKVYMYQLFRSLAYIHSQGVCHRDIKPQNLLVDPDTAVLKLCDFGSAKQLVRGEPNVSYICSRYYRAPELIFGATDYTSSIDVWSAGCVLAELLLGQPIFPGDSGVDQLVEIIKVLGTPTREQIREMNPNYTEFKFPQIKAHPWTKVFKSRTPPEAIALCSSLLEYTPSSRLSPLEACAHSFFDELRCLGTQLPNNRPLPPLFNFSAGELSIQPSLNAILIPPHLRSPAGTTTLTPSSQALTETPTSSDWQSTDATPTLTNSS
Protocol: (§1) The kinase enzyme binding activities of compounds disclosed herein were determined using a proprietary assay which measures active site-directed competition binding to an immobilized ligand (Fabian, M. A. et al., Nature Biotechnol., 2005, 23:329-336). These assays were conducted by DiscoverX (formerly Ambit; San Diego, Calif.). The percentage inhibition produced by incubation with a test compound is calculated relative to the non-inhibited control.

[7] = target: HCK (Homo sapiens (Human), UniProt P08631); test: Enzyme binding assay (Kinomescan) HCK; conditions: read-out: % Inhibition for kinase binding at 500 nM HCK
Chain of HCK (P08631 22-526): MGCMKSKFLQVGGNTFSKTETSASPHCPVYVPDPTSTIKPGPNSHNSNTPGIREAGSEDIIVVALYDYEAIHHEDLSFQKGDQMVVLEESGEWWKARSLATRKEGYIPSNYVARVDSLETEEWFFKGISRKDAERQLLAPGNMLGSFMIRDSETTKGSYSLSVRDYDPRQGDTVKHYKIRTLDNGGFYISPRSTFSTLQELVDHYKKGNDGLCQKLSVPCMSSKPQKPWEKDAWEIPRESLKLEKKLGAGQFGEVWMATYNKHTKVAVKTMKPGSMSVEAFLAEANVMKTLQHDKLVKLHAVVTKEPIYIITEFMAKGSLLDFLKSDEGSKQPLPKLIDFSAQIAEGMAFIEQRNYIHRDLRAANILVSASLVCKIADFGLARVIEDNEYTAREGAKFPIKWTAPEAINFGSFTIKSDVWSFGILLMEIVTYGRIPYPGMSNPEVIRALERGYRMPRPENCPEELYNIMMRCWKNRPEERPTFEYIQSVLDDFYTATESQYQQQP
Protocol: as §1

Row | Structure (SMILES) | Mitosis Assay % inhibition in PBMC cells at 5 μg/mL [1] [%] | inhibition at 0.5 µM [6] [%] | inhibition at 0.5 µM [7] [%] | IC50 [2] [nM] | MTT Assay Cell viability at time point in d-U937 cells 4 h [3] | MTT Assay Cell viability at time point in d-U937 cells 24 h [3] | % Inhibition of neutrophil accumulation in BAL [4] [%] | Neutrophil numbers in BAL (+/−SEM) [4] | IC50 [5] [nM] | HRV induced CPE in MRC5 Cells % Inhibition Observed ([5]; MRC5 cells, screened at concentrations up to 0.32 ng/mL) [%]
1 | Cc1ccc(-n2nc(C(C)(C)C)cc2NC(=O)Nc2ccc(Oc3ccnc(Nc4ccc5[nH]ncc5c4)n3)c3ccccc23)cc1 [Example 22, 1-(4-((2-((1H-indazol-5-yl)amino)pyrimidin-4-yl)oxy)naphthalen-1-yl)-3-(3-(tert-butyl)-1-(p-tolyl)-1H-pyrazol-5-yl)urea] | 52.7 | – | – | 4.6 | −ve (−ve and +ve indicate that the value is below and above respectively, the no significant effect threshold, defined as 30% inhibition at 1 μg/mL at the time point indicated.) | −ve (−ve and +ve indicate that the value is below and above respectively, the no significant effect threshold, defined as 30% inhibition at 1 μg/mL at the time point indicated.) | 57 | 7.0 ± 1.2 ×10^5/mL | – | –
2 | COc1ccc(-n2nc(C(C)(C)C)cc2NC(=O)Nc2ccc(Oc3ccnc(Nc4ccc5[nH]ncc5c4)n3)c3ccccc23)cc1 [Example 40, 1-(4-((2-((1H-indazol-5-yl)amino)pyrimidin-4-yl)oxy)naphthalen-1-yl)-3-(3-(tert-butyl)-1-(4-methoxyphenyl)-1H-pyrazol-5-yl)urea] | 30.5 | – | – | 4.8 | −ve (−ve and +ve indicate that the value is below and above respectively, the no significant effect threshold, defined as 30% inhibition at 1 μg/mL at the time point indicated.) | −ve (−ve and +ve indicate that the value is below and above respectively, the no significant effect threshold, defined as 30% inhibition at 1 μg/mL at the time point indicated.) | – | – | – | –

The next lines start with results.

Row | Mitosis Assay % inhibition in PBMC cells at 5 μg/mL [1] [%] | inhibition at 0.5 µM [6] [%] | inhibition at 0.5 µM [7] [%] | Structure (SMILES) | IC50 [2] [nM] | MTT Assay Cell viability at time point in d-U937 cells 4 h [3] | MTT Assay Cell viability at time point in d-U937 cells 24 h [3] | % Inhibition of neutrophil accumulation in BAL [4] [%] | Neutrophil numbers in BAL (+/−SEM) [4] | IC50 [5] [nM] | HRV induced CPE in MRC5 Cells % Inhibition Observed ([5]; MRC5 cells, screened at concentrations up to 0.32 ng/mL) [%]
3 | 26.7 | – | – | Cc1cc(Nc2nccc(Oc3ccc(NC(=O)Nc4cc(C(C)(C)C)nn4-c4ccc(=O)n(CCN5CCOCC5)c4)c4ccccc34)n2)cc2cn[nH]c12 [Example 89, 1-(3-(tert-butyl)-1-(1-(2-morpholinoethyl)-6-oxo-1,6-dihydropyridin-3-yl)-1H-pyrazol-5-yl)-3-(4-((2-((7-methyl-1H-indazol-5-yl)amino)pyrimidin-4-yl)oxy)naphthalen-1-yl)urea] | – | −ve (−ve and +ve indicate that the value is below and above respectively, the no significant effect threshold, defined as 30% inhibition at 1 μg/mL at the time point indicated.) | +ve (−ve and +ve indicate that the value is below and above respectively, the no significant effect threshold, defined as 30% inhibition at 1 μg/mL at the time point indicated.) | – | – | 9.6 | –
4 | 58.6 | 31 | 100 | CC(C)(C)c1cc(NC(=O)Nc2ccc(Oc3ccnc(Nc4ccc5[nH]ncc5c4)n3)c3ccccc23)n(-c2ccc(OCCN3CCOCC3)cc2)n1 [Example 12, 1-(4-((2-((1H-Indazol-5-yl)amino)pyrimidin-4-yl)oxy)naphthalen-1-yl)-3-(3-(tert-butyl)-1-(4-(2-morpholinoethoxy)phenyl)-1H-pyrazol-5-yl)urea] | – | −ve (−ve and +ve indicate that the value is below and above respectively, the no significant effect threshold, defined as 30% inhibition at 1 μg/mL at the time point indicated.) | −ve (−ve and +ve indicate that the value is below and above respectively, the no significant effect threshold, defined as 30% inhibition at 1 μg/mL at the time point indicated.) | 46 | 7.6 ± 1.5 ×10^5/mL | – | 92
5 | 70.7 | – | – | Cc1ccc(-n2nc(C(C)(C)C)cc2NC(=O)Nc2ccc(Oc3cc(Nc4ccc5[nH]ncc5c4)ncn3)c3ccccc23)cc1 [Example 23, 1-(4-((6-((1H-indazol-5-yl)amino)pyrimidin-4-yl)oxy)naphthalen-1-yl)-3-(3-(tert-butyl)-1-(p-tolyl)-1H-pyrazol-5-yl)urea] | – | −ve (−ve and +ve indicate that the value is below and above respectively, the no significant effect threshold, defined as 30% inhibition at 1 μg/mL at the time point indicated.) | −ve (−ve and +ve indicate that the value is below and above respectively, the no significant effect threshold, defined as 30% inhibition at 1 μg/mL at the time point indicated.) | – | – | 3 | –
